From PMC10414583, “Structures of SARS-CoV-2 N7-methyltransferase with DOT1L and PRMT7 inhibitors provide a platform for new antivirals” (PLOS Pathogens, 2023)
pKd: −log10 of the molar value.

The compounds below were run against T1, SARS-CoV-2 nsp14/nsp10 complex (Severe acute respiratory syndrome coronavirus 2, UniProt P0DTD1) (assay: biochemical).
T1 construct: gene rep; full-length mature nsp14 and nsp10 cut from replicase polyprotein 1ab; co-expressed from one pRSF-Duet-1 plasmid in E. coli BL21Gold (DE3), C-terminal 6xHis; with Non-structural protein 10
Assay type: binding

Row | SMILES | pKd
1 | Nc1nc2c(ncn2[C@@H]2O[C@H](COP(=O)(O)OP(=O)(O)OP(=O)(O)OC[C@H]3O[C@@H](n4cnc5c(N)ncnc54)[C@H](O)[C@@H]3O)[C@@H](O)[C@H]2O)c(=O)[nH]1 [GpppA RNA cap analog] | 4.70
2 | C[S+](CC[C@H](N)C(=O)O)C[C@H]1O[C@@H](n2cnc3c(N)ncnc32)[C@H](O)[C@@H]1O (stereo partly shown) [SAM] | ~5.22
3 | CC(C)N(CCCNC(=O)Nc1ccc(C(C)(C)C)cc1)C[C@H]1O[C@@H](n2cc(Br)c3c(N)ncnc32)[C@H](O)[C@@H]1O [SGC0946] | ~5.10
4 | Nc1ncnc2c1ncn2[C@@H]1O[C@H](CSCCCCNCc2cccc(-c3ccc(Cl)cc3)c2)[C@@H](O)[C@H]1O [SGC8158] | ~5.22
